Laboratory results from ChEMBL document CHEMBL3046950, “Insecticide resistance traits differ among and within host races in Aphis gossypii” (2010).

Legend:
Aphis gossypii [1] = format: functional, clone NM1
Aphis gossypii [2] = format: functional
Aphis gossypii [3] = format: functional; remark: listed apart in the source
Aphis gossypii [4] = format: functional; remark: listed apart in the source
Aphis gossypii [5] = experiment: Insecticidal activity against Aphis gossypii clone PsP4 (cotton aphid) in pepper plant leaf assessed as mortality after 24 hr by leaf disk assay; format: functional
Aphis gossypii [6] = format: functional; remark: listed apart in the source
Aphis gossypii [7] = format: functional; remark: listed apart in the source
Aphis gossypii [8] = experiment: Insecticidal activity against Aphis gossypii clone Ivo (cotton aphid) in cotton plant leaf assessed as mortality after 24 hr by leaf disk assay; format: functional
Aphis gossypii [9] = experiment: Insecticidal activity against Aphis gossypii clone Auber (cotton aphid) in egg plant leaf assessed as mortality after 24 hr by leaf disk assay; format: functional
Aphis gossypii [10] = experiment: Insecticidal activity against Aphis gossypii clone Burk (cotton aphid) in cotton plant leaf assessed as mortality after 24 hr by leaf disk assay; format: functional
Aphis gossypii [11] = format: functional, clone C9
Aphis gossypii [12] = format: functional, clone C4
Aphis gossypii [13] = format: functional; remark: listed apart in the source
Aphis gossypii [14] = experiment: Insecticidal activity against Aphis gossypii clone NM1 (cotton aphid) in zucchini or squash leaf assessed as mortality after 24 hr by leaf disk assay in presence of piperonyl butoxide; format: functional
Aphis gossypii [15] = experiment: Insecticidal activity against Aphis gossypii clone Auber (cotton aphid) in egg plant leaf assessed as mortality after 24 hr by leaf disk assay in presence of piperonyl butoxide; format: functional
Aphis gossypii [16] = experiment: Synergist ratio, ratio of LC50 for Aphis gossypii clone Burk (cotton aphid) in presence of S,S,S-tri-n-butyl phosphorotrithioate to LC50 for Aphis gossypii clone Burk; format: functional
Aphis gossypii [17] = experiment: Insecticidal activity against Aphis gossypii clone Burk (cotton aphid) in egg plant leaf assessed as mortality after 24 hr by leaf disk assay in presence of piperonyl butoxide; format: functional
Aphis gossypii [18] = experiment: Insecticidal activity against Aphis gossypii clone NM1 (cotton aphid) in zucchini or squash leaf assessed as mortality after 24 hr by leaf disk assay in presence of S,S,S-tri-n-butyl phosphorotrithioate; format: functional
Aphis gossypii [19] = experiment: Synergist ratio, ratio of LC50 for Aphis gossypii clone NM1 (cotton aphid) in presence of piperonyl butoxide to LC50 for Aphis gossypii clone NM1; format: functional
Aphis gossypii [20] = experiment: Insecticidal activity against Aphis gossypii clone Burk (cotton aphid) in egg plant leaf assessed as mortality after 24 hr by leaf disk assay in presence of S,S,S-tri-n-butyl phosphorotrithioate; format: functional
Aphis gossypii [21] = experiment: Insecticidal activity against Aphis gossypii clone Auber (cotton aphid) in egg plant leaf assessed as mortality after 24 hr by leaf disk assay in presence of S,S,S-tri-n-butyl phosphorotrithioate; format: functional
Aphis gossypii [22] = experiment: Synergist ratio, ratio of LC50 for Aphis gossypii clone Auber (cotton aphid) in presence of piperonyl butoxide to LC50 for Aphis gossypii clone Auber; format: functional
Aphis gossypii [23] = experiment: Synergist ratio, ratio of LC50 for Aphis gossypii clone Auber (cotton aphid) in presence of S,S,S-tri-n-butyl phosphorotrithioate to LC50 for Aphis gossypii clone Auber; format: functional
Aphis gossypii [24] = experiment: Synergist ratio, ratio of LC50 for Aphis gossypii clone Burk (cotton aphid) in presence of piperonyl butoxide to LC50 for Aphis gossypii clone […]; format: functional
Aphis gossypii [25] = experiment: Synergist ratio, ratio of LC50 for Aphis gossypii clone NM1 (cotton aphid) in presence of S,S,S-tri-n-butyl phosphorotrithioate to LC50 for Aphis gossypii clone NM1; format: functional

| Compound | LC50 (Aphis gossypii [1]) [ugAi/ml] | RatioLC50 (Aphis gossypii [2]) | RatioLC50 (Aphis gossypii [3]) | RatioLC50 (Aphis gossypii [4]) | LC50 (Aphis gossypii [5]) [ugAi/ml] | RatioLC50 (Aphis gossypii [6]) | RatioLC50 (Aphis gossypii [7]) | LC50 (Aphis gossypii [8]) [ugAi/ml] | LC50 (Aphis gossypii [9]) [ugAi/ml] | LC50 (Aphis gossypii [10]) [ugAi/ml] | LC50 (Aphis gossypii [11]) [ugAi/ml] | LC50 (Aphis gossypii [12]) [ugAi/ml] | RatioLC50 (Aphis gossypii [13]) | further results |
| --- | --- | --- | --- | --- | --- | --- | --- | --- | --- | --- | --- | --- | --- | --- |
| CCCCN(CCCC)SN(C)C(=O)Oc1cccc2c1OC(C)(C)C2 [CARBOSULFAN] | 4.6 | 1.2 | 0.9 | 0.5 | 4.2 | 0.7 | 1.2 | 2.2 | 4 | 3.1 | 5.6 | 5.7 | 0.9 | – |
| Clc1ccc(C(c2ccc(Cl)cc2)C(Cl)(Cl)Cl)cc1 [CHLOROPHENOTHANE] | 206.7 | – | – | – | – | 148.7 | – | – | 291.6 | 30738.4 | – | – | 1.4 | – |
| C/C(=N\C#N)N(C)Cc1ccc(Cl)nc1 | 3.9 | 1.1 | 0.6 | 1 | 2.5 | 1.6 | 0.9 | 4 | 7.9 | 6.4 | 4.3 | 3.7 | 2 | – |
| CCCSP(=O)(OCC)Oc1ccc(Br)cc1Cl (centres undefined) [PROFENOFOS] | 11.3 | 1.5 | 6.8 | 0.4 | 77.1 | 4.4 | 1.3 | 4.3 | 59.6 | 50 | 17.2 | 15 | 5.3 | – |
| CC1(C)C(C=C(Cl)Cl)C1C(=O)OC(C#N)c1cccc(Oc2ccccc2)c1 (stereo not drawn) [ALPHA-CYPERMETHRIN] | 10.9 | 0.5 | 1.4 | 0.5 | 19.7 | 473 | 0.4 | 7.1 | 504 | 6763.5 | 7.2 | 6.3 | 41.2 | LC50 (Aphis gossypii [14]): 13.2 ugAi/ml; LC50 (Aphis gossypii [15]): 23360 ugAi/ml; RatioLC50 (Aphis gossypii [16]): 1.3; LC50 (Aphis gossypii [17]): 207 ugAi/ml; LC50 (Aphis gossypii [18]): 119 ugAi/ml; RatioLC50 (Aphis gossypii [19]): 0.8; LC50 (Aphis gossypii [20]): 18516 ugAi/ml; LC50 (Aphis gossypii [21]): 8.5 ugAi/ml; RatioLC50 (Aphis gossypii [22]): 4.2; RatioLC50 (Aphis gossypii [23]): 2.4; RatioLC50 (Aphis gossypii [24]): 1; RatioLC50 (Aphis gossypii [25]): 1.3 |
